Here are results for ten compounds from publication PMC6120739 (ACS Omega, 2018).

“Also recorded” adds a separate entry of the source.

Data set [1] addresses recombinant human P-gp (Homo sapiens, UniProt P08183). The data set can be described thus: Pgp-Glo assay. The settings on record: 20 µM compound, 1 hr at 37°C, normalized to Na3VO4.
Data set [2] concerns the target PARP-1 (Homo sapiens, UniProt P09874). The data set can be described thus: PARP-1 radioligand binding. The settings on record: PARP-1 IC50, OVCAR8 cells, [125I]KX1 radioligand, ± SEM, n = 3.
Data set [3] has as its system UWB1.289 cells. The data set can be described thus: Cell viability assay. To be noted: for EC50: UWB1289, read-out: UWB1.289 EC50; for cytotoxicity in BRCA1-null model, result in words: compared with AZD2461 and olaparib.
The test system of data set [4] is UWB1.289 + BRCA1 cells. The experiment in a line: Cell viability assay. The format is cell-based. To be noted: for EC50: UWB1289, read-out: UWB1.289 + BRCA1 EC50; for antiproliferative effect in BRCA1-restored UWB1.289, result in words: in contrast to olaparib and AZD2461.

Chain of PARP-1 (P09874 whole entry): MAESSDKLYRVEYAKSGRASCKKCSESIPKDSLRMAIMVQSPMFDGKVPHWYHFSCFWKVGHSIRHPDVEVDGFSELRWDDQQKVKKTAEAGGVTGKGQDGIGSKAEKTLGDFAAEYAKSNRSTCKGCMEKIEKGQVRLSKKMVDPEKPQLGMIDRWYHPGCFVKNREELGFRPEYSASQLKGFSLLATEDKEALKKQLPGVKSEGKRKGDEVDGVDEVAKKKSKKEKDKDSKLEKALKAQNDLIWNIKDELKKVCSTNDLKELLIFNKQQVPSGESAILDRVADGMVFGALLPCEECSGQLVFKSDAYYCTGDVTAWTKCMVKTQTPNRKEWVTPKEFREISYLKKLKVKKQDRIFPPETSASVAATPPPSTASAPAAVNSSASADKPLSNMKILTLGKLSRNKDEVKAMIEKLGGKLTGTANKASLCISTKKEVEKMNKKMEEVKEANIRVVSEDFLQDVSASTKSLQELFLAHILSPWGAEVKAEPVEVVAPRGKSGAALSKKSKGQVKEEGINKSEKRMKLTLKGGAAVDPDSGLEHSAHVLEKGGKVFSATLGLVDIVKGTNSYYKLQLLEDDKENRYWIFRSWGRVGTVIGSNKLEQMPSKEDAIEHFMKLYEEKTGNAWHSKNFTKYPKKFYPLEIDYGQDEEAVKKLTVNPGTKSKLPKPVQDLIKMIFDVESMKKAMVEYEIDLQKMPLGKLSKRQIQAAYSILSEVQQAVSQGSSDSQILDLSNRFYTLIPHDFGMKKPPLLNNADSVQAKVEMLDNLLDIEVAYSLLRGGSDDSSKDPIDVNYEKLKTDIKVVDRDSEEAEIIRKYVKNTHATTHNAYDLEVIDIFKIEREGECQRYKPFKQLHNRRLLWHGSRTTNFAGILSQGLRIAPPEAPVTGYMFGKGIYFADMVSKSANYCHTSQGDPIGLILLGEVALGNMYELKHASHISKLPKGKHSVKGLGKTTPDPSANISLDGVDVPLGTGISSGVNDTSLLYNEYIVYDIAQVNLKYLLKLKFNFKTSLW
Chain of recombinant human P-gp (P08183 whole entry): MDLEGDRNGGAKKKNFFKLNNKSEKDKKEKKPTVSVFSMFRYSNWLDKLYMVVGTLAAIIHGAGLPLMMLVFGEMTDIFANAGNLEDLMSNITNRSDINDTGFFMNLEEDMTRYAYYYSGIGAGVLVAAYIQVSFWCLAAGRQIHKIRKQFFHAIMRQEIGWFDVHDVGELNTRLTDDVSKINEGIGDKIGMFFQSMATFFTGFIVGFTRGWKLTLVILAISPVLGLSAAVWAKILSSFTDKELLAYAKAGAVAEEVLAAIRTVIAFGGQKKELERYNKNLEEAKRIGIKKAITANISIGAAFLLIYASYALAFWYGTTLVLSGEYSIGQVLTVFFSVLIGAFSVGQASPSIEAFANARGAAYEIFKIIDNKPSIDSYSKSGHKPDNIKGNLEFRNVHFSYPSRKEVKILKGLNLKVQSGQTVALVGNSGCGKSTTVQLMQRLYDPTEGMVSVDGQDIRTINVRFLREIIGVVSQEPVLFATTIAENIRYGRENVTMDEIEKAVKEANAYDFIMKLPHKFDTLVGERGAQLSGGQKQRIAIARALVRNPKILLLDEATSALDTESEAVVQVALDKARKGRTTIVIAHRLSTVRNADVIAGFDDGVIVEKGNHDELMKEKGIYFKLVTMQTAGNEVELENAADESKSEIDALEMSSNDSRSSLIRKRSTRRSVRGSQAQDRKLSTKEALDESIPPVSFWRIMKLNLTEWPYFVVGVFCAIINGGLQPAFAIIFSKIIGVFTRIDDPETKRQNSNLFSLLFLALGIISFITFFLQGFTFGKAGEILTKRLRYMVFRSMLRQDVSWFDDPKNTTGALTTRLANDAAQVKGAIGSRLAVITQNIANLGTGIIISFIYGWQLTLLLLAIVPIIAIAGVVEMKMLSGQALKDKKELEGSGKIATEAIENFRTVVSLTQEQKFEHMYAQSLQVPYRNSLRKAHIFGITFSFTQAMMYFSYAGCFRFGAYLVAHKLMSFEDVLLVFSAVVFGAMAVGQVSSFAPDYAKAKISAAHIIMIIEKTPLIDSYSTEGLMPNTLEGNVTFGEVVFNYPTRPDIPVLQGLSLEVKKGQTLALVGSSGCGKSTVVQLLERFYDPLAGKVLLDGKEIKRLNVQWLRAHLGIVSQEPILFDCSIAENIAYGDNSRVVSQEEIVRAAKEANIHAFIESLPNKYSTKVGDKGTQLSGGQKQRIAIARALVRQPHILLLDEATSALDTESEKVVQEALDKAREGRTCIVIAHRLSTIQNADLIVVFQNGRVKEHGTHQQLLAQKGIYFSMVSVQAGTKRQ

For `COC1CN(C(=O)c2cc(Cc3n[nH]c(=O)c4ccccc34)ccc2F)C1` [Compound 2], the “P-gp ATPase interaction (luminescence), result in words” value (“P-gp ATPase interaction (luminescence)” for short) in data set [1] was “increase in luminescence”. The IC50 (usually the point on the concentration scale where inhibition reaches its midpoint) in data set [2] is < 10 nM. In data set [3], the EC50 (usually the concentration needed to bring the measured effect to its halfway point) was 2120 ± 200 nM; the “cytotoxicity in BRCA1-null model, result in words” value (shortened to “cytotoxicity in BRCA1-null model”) was “less cytotoxic than both AZD2461 and olaparib”. Also, in data set [4], the EC50 came out at 13400 ± 700 nM and the “antiproliferative effect in BRCA1-restored UWB1.289, result in words” value (“antiproliferative effect” below) is given as “poor antiproliferative effects”.

Turning to `COC1CCN(C(=O)c2cc(Cc3n[nH]c(=O)c4ccccc34)ccc2F)C1` (stereo not drawn) [Compound 3], the “P-gp ATPase interaction (luminescence)” value in data set [1] is “increase in luminescence; also recorded: weakest activators of P-gp ATPase; also recorded: least activating agents of P-gp ATPase”. Besides, the IC50 in data set [2] is < 10 nM. In data set [3], the EC50 turned out to be 1500 ± 400 nM; the “cytotoxicity in BRCA1-null model” value was “less cytotoxic than both AZD2461 and olaparib”. Also, in data set [4], the EC50 was 8580 ± 1100 nM and the “antiproliferative effect” value was “poor antiproliferative effects”.

For `COC1CCN(C(=O)c2cc(Cc3n[nH]c(=O)c4ccccc34)ccc2F)CC1` [Compound 4, AZD2461, reference compound], the EC50 in data set [3] turned out to be 890 ± 700 nM; in data set [4] it was 2280 ± 300 nM.

With `COC1CCCN(C(=O)c2cc(Cc3n[nH]c(=O)c4ccccc34)ccc2F)CC1` (stereo not drawn) [Compound 5], in data set [1], the “P-gp ATPase interaction (luminescence)” value is “increase in luminescence; also recorded: weakest activators of P-gp ATPase”. Besides, the IC50 in data set [2] is < 10 nM. Also, in data set [3], the EC50 is 2840 ± 1400 nM; the “cytotoxicity in BRCA1-null model” value was “less cytotoxic than both AZD2461 and olaparib”. Also, in data set [4], the EC50 turned out to be 3490 ± 200 nM and the “antiproliferative effect” value is on record as “poor antiproliferative effects”.

Consider `COC1CC(NC(=O)c2cc(Cc3n[nH]c(=O)c4ccccc34)ccc2F)C1` (stereo not drawn) [Compound 6], for which the “P-gp ATPase interaction (luminescence)” value in data set [1] is on record as “only P-gp substrate in this study”. Also, the EC50 worked out at 10100 ± 1500 nM in data set [3] and 6620 ± 4300 nM in data set [4].

Compound `CO[C@H]1C[C@H](NC(=O)c2cc(Cc3n[nH]c(=O)c4ccccc34)ccc2F)C1` [Compound 7] yielded an IC50 in data set [2] of 20.8 ± 1.1 nM. The EC50 is 1940 ± 1100 nM in data set [3] and 2810 ± 1400 nM in data set [4].

As to `CO[C@H]1C[C@@H](NC(=O)c2cc(Cc3n[nH]c(=O)c4ccccc34)ccc2F)C1` [Compound 8], in data set [2], the IC50 worked out at 107 ± 1.1 nM. The values for the EC50 in data set [3] and in data set [4] were 4350 ± 1700 nM and 13900 ± 1100 nM, respectively.

Take `COC1CCC(NC(=O)c2cc(Cc3n[nH]c(=O)c4ccccc34)ccc2F)C1` (stereo not drawn) [Compound 9]: the “P-gp ATPase interaction (luminescence)” value in data set [1] is reported as “poor activator of P-pg ATPase; also recorded: least activating agents of P-gp ATPase”. The compound also yielded an IC50 in data set [2] of 49.5 ± 1.1 nM. Besides, the results for the EC50 in data set [3] and in data set [4] were 1320 ± 500 nM and 9310 ± 1000 nM, respectively.

Compound `COC1CCC(NC(=O)c2cc(Cc3n[nH]c(=O)c4ccccc34)ccc2F)CC1` (stereo not drawn) [Compound 10] registered an IC50 in data set [2] of 226.3 ± 1.1 nM. For the same compound, the EC50 in data set [3] was determined as 2420 ± 900 nM; in data set [4], 6160 ± 1300 nM.

Consider `O=C(c1cc(Cc2n[nH]c(=O)c3ccccc23)ccc1F)N1CCN(C(=O)C2CC2)CC1` [olaparib, reference compound], for which the “P-gp ATPase interaction (luminescence)” value in data set [1] is listed as “acts more of a P-gp ATPase activator, than 4”. For the same compound, the EC50 in data set [3] is 900 ± 500 nM; in data set [4] it was 1970 ± 400 nM.
